Assays:
[1] = tested on: 705 splice site (luciferase gene interrupted by a human β-globin intron mutated at nucleotide 705); assay: pLuc/705 splice correction assay: luciferase production in HeLa pLuc/705 cells; assay type: cell-based; conditions: splice-correction assay monitored over time
Method: The data described below was obtained by targeting a β-globin splice correction sequence fused to luciferase.
Other cell lines were obtained from ATCC (Manassas, Va.). […] All assays were carried out with exponentially growing cells in culture media containing 10% fetal bovine serum (FBS) unless otherwise specified.
This assay measures the ability of steric blocking oligomers to enter cells and nuclei, block incorrect splicing of pre-mRNA, and thus cause expression of a reporter gene. It avoids the confusion of cytotoxicity with activity that can affect down-regulation assays, as cells must be able to carry out RNA processing and translation to produce a signal. Because oligomers must enter cells and cell nuclei to produce a signal in the assay, it is very useful for measuring uptake and effectiveness of delivery moieties.
The time course of the uptake of various transporter-PMO-fluorescein conjugates, as described above, in HeLa pLuc/705 cells was studied by fluorescence spectroscopy. Experiments were generally run in triplicate. According to the general procedure, culture medium containing the test substance at a specified concentration was added to HeLa pLuc/705 cells plated in a 48-well plate. After incubation, at each time point, the cells were washed with PBS three times, and the cell lysate was collected as described under “Fluorometry”, above. The amount of functional luciferase produced was determined by mixing 30 μl of cell lysate and 50 μl of Luciferase Assay Reagent (LAR) (Promega, Wis.) and measuring the light production using a Flx 800 microplate fluorescence/luminescence reader (Bio-tek, Vermont). The relative light units were normalized to μg of protein determined by the bicinchoninic acid (BCA) method, following the manufacturer's procedure (Pierce, Ill.).

[2] = tested on: HeLa pLuc705 derived from HeLa S3, HeLa, NIH3T3, and Jurkat; assay: Cellular uptake by fluorescent microscopy in live cells; assay type: cell-based
Method: HeLa pLuc/705 (Kang, Cho et al. 1998) is a HeLa S3 cell line stably transfected with a plasmid carrying the luciferase coding sequence interrupted by a mutated human β-globin intron 2 (Gene Tools, Philomath, Oreg.). Other cell lines were obtained from ATCC (Manassas, Va.). The PMO's were 3′-labeled with fluorescein as described in Example 1. To avoid artifacts, all fluorescent images were taken from live cells, and no fixative agent or mounting media were used.
Cells were plated onto a 48-well plate. The next day the conditioned medium was removed and the test substances in fresh medium were added to the wells. After incubation, the cells were washed with phosphate-buffered saline (PBS) three times and visualized directly in the culture medium with a Nikon Diaphot 300 inverted microscope. Images were captured with an Olympus digital camera connected to a computer using MagnaFire software (Optronics, Goleta, Calif.).

HeLa pLuc705 cells = assay: Fluorometry: association (adsorption) of fluorescein-labeled conjugate with cells; assay type: cell-based, human
Method: HeLa pLuc/705 cells plated in a 48 well plate were treated with medium containing test substance. After incubation, cells were washed with PBS three times.
To measure the sum of membrane-bound and internalized fluorescence, cells were lysed directly in the wells by addition of 100 μl of cell lysis buffer (Promega, Madison, Wis.) to each well. Cell lysates were collected. The total fluorescence was determined by mixing 20 μl of cell lysate and 80 μl of 0.1 M Na2CO3 (pH 11) and measuring with an Flx 800 microplate fluorescence-luminescence reader with excitation at 485 nm and emission at 524 nm.
To measure internalized conjugate, the membrane-bound conjugate was removed by trypsinization, as follows. Trypsin (100 μl, 10%, Hyclone, Logan, Utah) was added to each well and incubated for 6 minutes at 37° C., followed by addition of 300 μl of culture media. The cells were spun down and washed with PBS, then lysed with 100 μl cell lysis buffer. The fluorescence of the cell lysate was measured as described above.

trypsin = assay: Degradation of conjugate by trypsin; assay type: in vitro ADME; conditions: data not shown

R9F2C-PMO: covalent conjugate of PMO 705 and transport peptide R9F2 via cysteine; fluorescein-labeled in uptake studies (chain RRRRRRRRRFFC; antisense cctcttacctcagttaca; cysteine linkage; PMO; fluorescein; synthetic transport peptide; synthetic oligomer)
incubation time after which luciferase was produced [1]: 120 min | pattern of fluorescence ([2]; HeLa S3 cells): less intense cytosolic diffuse fluorescence | pattern of fluorescence ([2]; HeLa cells): mostly diffused fluorescence | location of fluorescence in cells ([2]; HeLa, NIH3T3 or HeLa pLuc/705 cells, 20 minutes treatment, DHE nuclear stain): Diffuse green fluorescence was seen in both cytoplasm and nucleus | pattern of fluorescence ([2]; Jurkat cells): lowest level of fluorescence | pattern of fluorescence ([2]; NIH3T3 cells): very bright and diffused cytosolic and nuclear fluorescence | cells in which fluorescence was observed ([2]; all four cell lines, live cells): 100% | fluorescence of cells incubated at 37° C. compared with 17° C. (HeLa pLuc705 cells; 0.1 to 5 μM, 70 minutes): similar | time at which cell fluorescence reached maximum intensity (HeLa pLuc705 cells; HeLa pLuc705 cells, 1 μM, 900 minute study period): 30 to 45 min | adsorption with increasing concentration (HeLa pLuc705 cells; increase between 0.1-1 μM, not between 1-5 μM): saturable | sensitivity to degradation by trypsin (trypsin): sensitive to degradation by trypsin
